“Also recorded” adds a separate entry of the source.
Key:
[1] = target: SNAP-tagged human GLP-1R (Homo sapiens, UniProt P43220); experiment: DERET internalization assay, INS-1 832/3 SNAP-GLP-1R cells; format: cell-based; conditions: non-cognate agonist GIP
[2] = tested on: SNAP-tagged human GIPR; experiment: High-content microscopy internalization, SNAP-GIPR; format: cell-based; conditions: BG-S-S-649, 30 min, 37 °C, respective endogenous agonists, n = 5
Protocol: (§1) The assay was performed as previously described ([21]). The INS-1 832/3 SNAP-GLP-1R or SNAP-GIPR cells were seeded into poly-D-lysine-coated, black 96-well plates. On the day of the assay, labeling was performed with BG-S-S-649 (1 µM), a surface-labeling SNAP-tag probe that can be released on application of reducing agents such as Mesna. After washing, treatments were applied for 30 minutes at 37 °C in complete medium. Ligand was removed and cells washed with cold HBSS and placed on ice for subsequent steps. Mesna (100 mM in alkaline TNE buffer, pH 8.6) or alkaline TNE buffer without Mesna was applied for 5 minutes, and then washed with HBSS. Cells were imaged by widefield microscopy, with both epifluorescence and transmitted phase contrast images acquired. On imaging completion, HBSS was removed and replaced with fresh complete medium, and receptor was allowed to recycle for 60 minutes at 37 °C, followed by a second Mesna application to remove any receptor that had recycled to the plasma membrane, with the plate re-imaged as above. Internalized receptor at each time point was determined from cell-containing regions as determined from the phase contrast image using […] ([22]) and used to determine internalization and recycling parameters as previously described ([21]). […]

[3] = tested on: SNAP-tagged human GIPR; experiment: High-content microscopy recycling, SNAP-GIPR; format: cell-based; conditions: 100 nM, 60 min recycling, 37 °C, n = 5
Protocol: as §1

[4] = tested on: SNAP-tagged human GIPR; experiment: Colocalization with SNX27-GFP, SNAP-GIPR; format: cell-based; conditions: 3 hours stimulation with 100 nM
[5] = tested on: GIPR-NanoLuc; experiment: KRAS-Venus bystander NanoBRET (plasma membrane), GIPR; format: cell-based; conditions: n = 5
Source text: GLP-1R-NanoLuc was generated in house by polymerase chain reaction (PCR) cloning of the NanoLuciferase sequence from pcDNA3.1-ccdB-NanoLuc (a gift from Prof. Mikko Taipale; Addgene plasmid # 87067) onto the C-terminus end of the SNAP-GLP-1R vector (CisBio), followed by site-directed mutagenesis of the GLP-1R stop codon. GIPR-NanoLuc was subsequently cloned in house by exchanging the GLP-1R for the GIPR in the GLP-1R-NanoLuc construct. KRAS- and Rab5-Venus plasmids were a gift from Prof. Kevin Pfleger, University of Western Australia. The INS-1 832/3 GLP-1R KO and GIPR KO cells were seeded in 12-well plates and co-transfected with 0.2 µg KRAS-Venus and 0.1 µg GLP-1R- or GIPR-NanoLuc, respectively, or 0.5 µg Rab5-Venus and 0.1 µg GLP-1R- or GIPR-NanoLuc, respectively.
All NanoBiT and NanoBRET readings were obtained in a Flexstation 3 plate reader. Briefly, 24 hours after transfection, cells were detached, resuspended in NanoGlo Live Cell Reagent (Promega) with furimazine (1:20 dilution) and seeded into white 96-well half-area plates. […] Readings were normalized to well baseline and then to average vehicle-induced signal to establish the agonist-induced effect. AUCs from response curves were calculated for each agonist concentration and fitted to four-parameter curves using Prism 9 (GraphPad).
Figure 2. Endosomal vs plasma membrane localization of GLP-1R compared with GIPR in beta cells. […] Data are mean ± SEM, compared by paired t tests or two-way ANOVA with Sidak's test; *P < .05.

[6] = tested on: cAMP response in INS-1 832/3 cells; experiment: cAMP HTRF assay; format: cell-based, rat; conditions: 100 nM, log(Emax/EC50) in Fig. 7A, n = 5
Source text: Results were expressed as basal fold increase responses and fitted to 3-parameter curves using Prism 9 (GraphPad).
Figure 7. Functional analysis of GLP-1R vs GIPR signaling in beta cells. […] Data are mean ± SEM, compared by paired t tests; *P < .05; ns, nonsignificant.

[7] = tested on: GLP-1R-SmBiT; experiment: Mini-G protein/β-arrestin 2 recruitment NanoBiT, GLP-1R; format: cell-based; conditions: 100 nM GLP-1, 30 minutes, n = 5
Source text: Here the SmBiT was cloned in frame at the C-terminus of the GLP-1R and the GIPR by substitution of the Tango sequence on FLAG-tagged GLP-1R-Tango or GIPR-Tango (a gift from Prof. Bryan Roth, University of North Carolina, USA; Addgene plasmids #66291 and #66294), respectively. Mini-Gs, mini-Gq, and mini-Gi plasmids, tagged at the N-terminus with LgBiT, were a gift from Prof. Nevin Lambert, Medical College of Georgia, USA. For β-arrestin 2 recruitment assays, β-arrestin 2 fused at the N-terminus to LgBiT (LgBiT-β-arrestin 2; Promega, plasmid no. CS1603B118) was chosen as it has previously been used successfully with other class B GPCRs. […]
All NanoBiT and NanoBRET readings were obtained in a Flexstation 3 plate reader. […] Readings were normalized to well baseline and then to average vehicle-induced signal to establish the agonist-induced effect. AUCs from response curves were calculated for each agonist concentration and fitted to four-parameter curves using Prism 9 (GraphPad).
Figure 5. […] (A) Kinetics of Gαs, Gαq, Gαi, and β-arrestin 2 recruitment to the GLP-1R assessed by NanoBiT complementation assay in INS-1 832/3 GLP-1R KO cells transiently expressing GLP-1R-SmBiT and the corresponding mini-G protein subtype or β-arrestin 2. […]

Chain of SNAP-tagged human GLP-1R (P43220 24-463): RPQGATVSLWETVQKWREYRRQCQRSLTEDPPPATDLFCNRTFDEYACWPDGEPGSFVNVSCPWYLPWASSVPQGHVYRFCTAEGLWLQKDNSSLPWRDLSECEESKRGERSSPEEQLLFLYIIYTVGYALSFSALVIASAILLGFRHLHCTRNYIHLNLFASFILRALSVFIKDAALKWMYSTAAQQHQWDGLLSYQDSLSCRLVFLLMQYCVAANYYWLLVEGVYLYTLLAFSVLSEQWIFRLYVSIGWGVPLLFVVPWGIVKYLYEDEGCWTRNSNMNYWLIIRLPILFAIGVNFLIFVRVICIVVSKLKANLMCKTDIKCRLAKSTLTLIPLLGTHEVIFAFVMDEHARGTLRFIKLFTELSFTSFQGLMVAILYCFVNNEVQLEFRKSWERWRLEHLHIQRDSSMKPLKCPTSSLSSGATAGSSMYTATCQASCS

| Substance | GLP-1R internalization [1] | Internalization of GIPR compared with GLP-1R [2] | Recycling rate of GIPR compared with GLP-1R [3] | SNAP-GIPR colocalization with SNX27 [4] | Plasma membrane retention of GIPR compared with GLP-1R ([5]; INS-1 832/3 KO cells) | Maximal internalization response (Emax), GIPR vs GLP-1R [5] | Potency (logEC50), GIPR vs GLP-1R [5] | cAMP response, GIP compared with GLP-1, INS-1 832/3 [6] | Gαi coupling of GLP-1R [7] | Gαs coupling of GLP-1R [7] |
| --- | --- | --- | --- | --- | --- | --- | --- | --- | --- | --- |
| GIP(1-42) | negligible | significantly less internalization | significantly increased recycling rates | sustained | increased propensity for plasma membrane retention | reduced maximal internalization responses | no changes in potency | near-significant increase; also recorded: tendency toward increased |  |  |
| GLP-1(7-36)NH2 |  |  |  |  |  |  |  |  | minimum coupling | preferentially coupled to Gαs |

From PMC10016038, “Enhanced Endosomal Signaling and Desensitization of GLP-1R vs GIPR in Pancreatic Beta Cells” (Endocrinology, 2023)
